From PubChem BioAssay AID602211 (Sanford-Burnham Center for Chemical Genomics, 2012)
The source made the active and inactive calls.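 The calls were made as follows: active = mean IC50 at or below 10 µM; inactive = the rest.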

Test system: H9c2 cardiomyocytes, H2O2 protection, ATPLite viability, 2 h
Assay: protection of H9c2 cardiomyocytes from H2O2 death, dose response, cell-based, ATPLite luminescence, set 2 (AID 602211);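 also: potency is for protection so actives keep ATP signal up against peroxide killing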

Q: With `COc1ccc(C(=O)O/N=C(/c2ccccc2)c2ccncc2)cc1OC` as the compound, how does the IC50 read?
A: 10.7 µM (inactive)

Q: With `COc1cc(/C=C/c2nc(-c3ccccc3O)n[nH]2)cc(OC)c1OC` as the compound, how does the IC50 read?
A: > 79 µM (inactive)

Q: For `COc1ccc(OCC(O)Cn2c(Br)nc3c2c(=O)[nH]c(=O)n3C)cc1` (configuration not stated), which IC50 is on record?
A: 15.9 µM (inactive)

Q: With `COc1ccc(Cl)cc1-c1nc(-c2ccc(NC(=O)c3cccs3)cc2)no1` as the compound, how does the IC50 read?
A: > 79 µM (inactive)

Q: With `Cc1nc(N2CCN(c3ccccn3)CC2)c2c(C)c(C(=O)Nc3ccccc3F)sc2n1` as the compound, how does the IC50 read?
A: 4.04 µM

Q: `COc1cc(/C=N/NC(=O)c2ccccc2)ccc1OS(=O)(=O)c1ccccc1` was tested. Which IC50 did it give?
A: 6.29 µM

Q: With `Cc1c(OCC(=O)NCCN2CCOCC2)ccc2c1oc(=O)c1ccccc12` as the compound, how does the IC50 read?
A: 5.33 µM

Q: For `O=C(COC(=O)c1ccccc1C(=O)OCC(=O)NCCc1c[nH]c2ccccc12)NCCc1c[nH]c2ccccc12`, which IC50 is on record?
A: 4.86 µM

Q: Which IC50 does the source give for `O=c1c2ccccc2nc2c3ccccc3c(NCCO)nn12` here?
A: 20.3 µM (inactive)

Q: Which IC50 does the source give for `Cc1ccc(NC(=O)c2cc(=O)c3ccccc3o2)cc1S(=O)(=O)N1CCOCC1` here?
A: 5.15 µM

Q: Which IC50 does the source give for `NS(=O)(=O)c1ccc(N=Cc2c(O)n(-c3nccs3)c(=O)c3ccccc23)cc1` here?
A: 4.2 µM

Q: With `COc1ccc(N(Cc2cc3cc(OC)ccc3[nH]c2=O)C(=O)c2cccnc2)cc1` as the compound, how does the IC50 read?
A: 19.1 µM (inactive)

Q: How did the IC50 turn out when `CCC(C)N1C(=O)S/C(=C/c2ccc3c(c2)n(C)c(=O)n3C)C1=O` (configuration not stated) was run?
A: > 79 µM (inactive)

Q: How did the IC50 turn out when `CCOC(=O)N1CCN(C(=O)CSc2nc3c(cnn3-c3ccc(C)cc3)c(=O)[nH]2)CC1` was run?
A: 2.14 µM

Q: For `Nc1c(C(=O)N/N=C/c2cccnc2)oc2nc(-c3ccccc3)cc(-c3ccco3)c12`, which IC50 is on record?
A: 2.86 µM

Q: With `C[C@H](NC(=O)c1nc[nH]c1C(=O)NCC(=O)OCc1ccccc1)C(=O)OCc1ccccc1` as the compound, how does the IC50 read?
A: 26.2 µM (inactive)

Q: How did the IC50 turn out when `C=C1C(C)C2C(Cc3ccccc3)NC(=O)C23OC(=O)/C=C/C(O)CCCC(C)C/C=C/C3C1O` (configuration not stated) was run?
A: 0.611 µM

Q: Which IC50 does the source give for `CC(=O)Nc1ccc(NS(=O)(=O)c2cc(-c3n[nH]c(=O)c4ccccc34)ccc2C)cc1` here?
A: 3.65 µM

Q: `N#Cc1c(-c2ccco2)cc(-c2ccccn2)nc1N` was tested. Which IC50 did it give?
A: 28.5 µM (inactive)

Q: Which IC50 does the source give for `NC(=O)c1oc2ccccc2c1NC(=O)c1ccco1` here?
A: 21.4 µM (inactive)

Q: Which IC50 does the source give for `CCOC(=O)C1CCN(c2cc3c(cc2NC(=O)c2ccc(OC)c(OC)c2)n(C)c(=O)n3C)CC1` here?
A: 1.22 µM

Q: How did the IC50 turn out when `COc1cc(C(=O)Nc2ccc(NC(=O)c3cccc(Cl)c3)nc2)cc(OC)c1OC` was run?
A: 2.96 µM

Q: How did the IC50 turn out when `COc1cc(-c2cc(NC(C)=O)c3ncc(-c4ccc(F)cc4)n3c2)cc(OC)c1OC` was run?
A: > 79 µM (inactive)

Q: `O=C(Nc1ccc2nc(N3CCOCC3)sc2c1)c1cc2ccccc2o1` was tested. Which IC50 did it give?
A: 4.75 µM

Q: With `Cc1ccc(C(=O)Nc2cccc(C(F)(F)F)c2)cc1NC(=O)c1csc(-c2ccncc2)n1` as the compound, how does the IC50 read?
A: 5.51 µM

Q: For `CCc1nc2ccc(C(=O)Nc3cc(-c4ccccc4)ccc3OC)cn2c1N(C)Cc1nccs1`, which IC50 is on record?
A: 5.95 µM

Q: For `COc1ccc(-c2cc(C(=O)N(C)Cc3ccccc3F)c3ccccc3n2)cc1OC`, which IC50 is on record?
A: > 79 µM (inactive)

Q: For `COc1cc(CN2C[C@@H](CO)O[C@@H](n3cnc4c(Nc5ccccc5)ncnc43)C2)cc(OC)c1OC`, which IC50 is on record?
A: 10.6 µM (inactive)

Q: How did the IC50 turn out when `O=C(Nc1cc(S(=O)(=O)N2CCOCC2)ccc1N1CCCCC1)c1cc(-c2ccccn2)nc2ccccc12` was run?
A: 3.38 µM

Q: Which IC50 does the source give for `CC(=O)Nc1cccc(NC(=O)c2cc(-c3cccnc3)nc3ccc(Cl)cc23)c1` here?
A: 2.24 µM

Q: Which IC50 does the source give for `CCOc1ncccc1C(=O)Nc1cccc(-c2nc3cccnc3s2)c1` here?
A: 3.51 µM

Q: How did the IC50 turn out when `COc1ccc(-n2c(/C=C/c3ccc(O)cc3)nc3ccccc3c2=O)cc1` was run?
A: 6.21 µM

Q: How did the IC50 turn out when `COc1ccc(N(CC(=O)Nc2cccc(C(C)=O)c2)S(=O)(=O)c2ccc(NC(C)=O)cc2)cc1` was run?
A: 3.03 µM

Q: For `CCN(C[C@H]1N[C@@](CC)(C(=O)OC)[C@H]2C(=O)N(Cc3ccccc3)C(=O)[C@@H]12)C(=O)c1ccc(C(C)(C)C)cc1`, which IC50 is on record?
A: > 79 µM (inactive)

Q: `O=c1[nH]c(CSc2nnc(-c3cccnc3)n2C2CCCCC2)nc2ccccc12` was tested. Which IC50 did it give?
A: 48.2 µM (inactive)

Q: With `O=C(NC1CCCCC1)C(c1ccc2ncccc2c1)N(Cc1cccs1)C(=O)c1cccs1` (configuration not stated) as the compound, how does the IC50 read?
A: 1.96 µM

Q: For `O=C(CN1CCN(Cc2ccccc2)CC1)Nc1ccc([N+](=O)[O-])cc1C(=O)Nc1ccccc1F`, which IC50 is on record?
A: 4.75 µM

Q: For `COc1ccc(CCn2c(=O)c3cccnc3n(Cc3ccc([N+](=O)[O-])cc3)c2=O)cc1OC`, which IC50 is on record?
A: 1.22 µM

Q: Which IC50 does the source give for `COc1cc(-c2cc(NC=O)c3ncc(-c4ccccc4)n3c2)cc(OC)c1OC` here?
A: > 79 µM (inactive)

Q: For `COc1cc(OC)cc(C(=O)Nc2ccc(C(=O)Nc3ccccc3OC)cc2)c1`, which IC50 is on record?
A: 10.2 µM (inactive)

Q: For `COc1ccc(Nc2nnc(SCc3cc(=O)n4ccsc4n3)s2)cc1`, which IC50 is on record?
A: 8.23 µM

Q: How did the IC50 turn out when `COC(=O)c1cc(OC)c(OC)cc1NC(=O)c1ccc(C)o1` was run?
A: 3.98 µM

Q: For `COc1ccc(C(=O)COC(=O)Cn2[nH]c(=O)c3ccccc3c2=O)c(OC)c1`, which IC50 is on record?
A: 27.2 µM (inactive)

Q: How did the IC50 turn out when `O=C(NC1CCCCC1)C(c1ccc2ncccc2c1)N(Cc1ccco1)C(=O)c1ccc2c(c1)OCCO2` (configuration not stated) was run?
A: 10.8 µM (inactive)

Q: `COc1cccc(C(=O)Nc2cc(C)c3c(=O)oc4ccccc4c3n2)c1` was tested. Which IC50 did it give?
A: 7.02 µM

Q: For `COc1ccc(-c2csc(NC(=O)c3ccc(OCC(=O)N4CCOCC4)c(OC)c3)n2)cc1OC`, which IC50 is on record?
A: 2.44 µM

Q: For `Cn1c(C(=O)NCCc2ccsc2)cc2c(=O)n(C)c3ccccc3c21`, which IC50 is on record?
A: 4.74 µM

Q: For `COc1ccc(-c2cc(C(F)(F)F)n3nc(C(=O)N4CCN(C(=O)c5ccco5)CC4)cc3n2)cc1`, which IC50 is on record?
A: 9.56 µM

Q: How did the IC50 turn out when `CCOC(=O)C1=C(C)N=c2s/c(=C\c3ccncc3)c(=O)n2C1c1ccc2c(c1)OCO2` (configuration not stated) was run?
A: 8.34 µM

Q: How did the IC50 turn out when `Cc1nn(-c2ccccc2)c(N2CCCC2)c1/C=N/NC(=O)c1cc(-c2ccccn2)nc2ccccc12` was run?
A: 7.63 µM

Q: With `COc1cc(C(=O)N/N=C/c2ccc(OC(=O)c3ccccc3)c(OC)c2)ccc1O` as the compound, how does the IC50 read?
A: 6.65 µM

Q: `COc1cccc(C(=O)Nc2cccc(-c3nnc(-c4ccco4)o3)c2)c1` was tested. Which IC50 did it give?
A: > 79 µM (inactive)

Q: Which IC50 does the source give for `N#C/C(=C\c1ccc(-c2cccc([N+](=O)[O-])c2)o1)C(=O)NCCN1CCOCC1` here?
A: > 79 µM (inactive)

Q: With `CC(C)(C)C(=O)Nc1ccc(C(=O)N/N=C/c2ccccc2OC(=O)c2ccccc2)cc1` as the compound, how does the IC50 read?
A: 6.72 µM

Q: With `COC(=O)c1ccc(OCC(=O)Nc2ccccc2C(=O)NC2CC2)cc1` as the compound, how does the IC50 read?
A: 22.6 µM (inactive)

Q: `CC1(C)Cc2c(c(N3CCOCC3)nc3sc4c(NN)ncnc4c23)CS1` was tested. Which IC50 did it give?
A: > 79 µM (inactive)

Q: How did the IC50 turn out when `Cc1c(C(=O)NCC2COc3ccccc3O2)oc2ccc(S(=O)(=O)N3CCOCC3)cc12` (configuration not stated) was run?
A: > 79 µM (inactive)

Q: With `O=C(Nc1cccc(/C=C/c2ccccn2)c1)c1ccc(-n2cncn2)cc1` as the compound, how does the IC50 read?
A: 3.13 µM

Q: Which IC50 does the source give for `COc1cc(/C=N/n2nnnc2Nc2ccccc2)cc(OC)c1OC` here?
A: 9.53 µM

Q: How did the IC50 turn out when `COc1ccccc1NC(=O)CSc1ccc2nnc(-c3ccc(C)cc3)n2n1` was run?
A: 3.16 µM

Q: Which IC50 does the source give for `CC(C)C(=O)N1CCN(c2ccc(NC(=O)COc3ccccc3[N+](=O)[O-])cc2)CC1` here?
A: 1.07 µM

Q: How did the IC50 turn out when `Cc1ncc(CO)c2c1Oc1nc(-c3ccccc3)nc(SCC(=O)N3CCCCC3)c1C2` was run?
A: > 79 µM (inactive)

Q: Which IC50 does the source give for `CCn1nc(C(=O)NNC(=O)c2cc(Cl)ccc2OC)c2ccccc2c1=O` here?
A: 30 µM (inactive)

Q: `Cc1c(C(=O)Nc2ccc3nc(N4CCOCC4)sc3c2)oc2ccccc12` was tested. Which IC50 did it give?
A: > 79 µM (inactive)

Q: For `Brc1cc2c(cc1/C=N/Nc1nc(N3CCCC3)nc(N3CCOCC3)n1)OCO2`, which IC50 is on record?
A: 8.27 µM

Q: `CCOc1cc(/C=C(\C#N)C(=O)Nc2ccc(S(N)(=O)=O)cc2)ccc1OCCN1CCOCC1` was tested. Which IC50 did it give?
A: 8.4 µM

Q: Which IC50 does the source give for `Cc1cccc(NC(=O)c2nc[nH]c2C(=O)NCC(=O)OCc2ccccc2)c1` here?
A: 3.54 µM
